Data as given in patent publication US20240116883A1, “CANNABINOID DERIVATIVES AND THEIR USE THE TREATMENT OF INFLAMMATION AND/OR PAIN AND/OR OBESITY” (Yissum Research Development Company of The Hebrew …, priority 2020, published 2024).

Key:
[1] = tested on: phenylbenzoquinone writhing; details: mice; versus aspirin; cited from earlier work
[2] = tested on: TPA induced erythema of mouse ear; details: application of a 100 pg/ml solution; cited from earlier work
[3] = molecular target: cannabinoid receptor CB2 (Homo sapiens, UniProt P34972); details: cited from earlier work
cannabinoid receptor CB2, sequence (P34972 whole entry): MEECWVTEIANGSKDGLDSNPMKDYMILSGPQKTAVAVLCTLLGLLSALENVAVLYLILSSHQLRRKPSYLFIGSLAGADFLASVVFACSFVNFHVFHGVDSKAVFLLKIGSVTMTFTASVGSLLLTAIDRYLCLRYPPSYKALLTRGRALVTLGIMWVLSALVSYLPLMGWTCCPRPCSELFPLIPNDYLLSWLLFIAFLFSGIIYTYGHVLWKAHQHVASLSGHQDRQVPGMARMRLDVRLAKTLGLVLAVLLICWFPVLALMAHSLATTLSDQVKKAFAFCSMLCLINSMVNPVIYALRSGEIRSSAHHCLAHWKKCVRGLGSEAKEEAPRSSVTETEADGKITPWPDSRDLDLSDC

[4] = tested on: swelling, pain, TNF-alpha; assay: biological activity assays of FIGS. 1-4 (swelling, pain, TNF-alpha, weight bearing); format: in vivo, mice; details: summary of FIGS. 1-4; varied doses, compared to CBD/CBG
Method: After an additional 90 minutes, the mice were decapitated, and trunk blood was collected for determination of TNF-α levels. […]
TNF-α determination assay: TNF-α (pg/ml) in cell culture supernatants or in mouse blood plasma was determined by the “sandwich” ELISA technique. ELISA reagents were used according to the manufacturer's protocol (R & D Systems).

| Structure (SMILES) | analgesic potency compared to aspirin [1] | inhibition of the inflammation response [2] | binding to CB2 [3] | anti-inflammatory activity [4] |
| --- | --- | --- | --- | --- |
| C=C(C)[C@@H]1CCC(C)=C[C@H]1c1c(O)cc(CCCCC)cc1O [CBD, Cannabidiol] | much more potent than aspirin | 92% | does not bind | – |
| CCCCCc1cc(O)c(C/C=C(\C)CCC=C(C)C)c(O)c1C [HUM-218, (E)-2-(3,7-dimethylocta-2,6-dien-1-yl)-4-methyl-5-pentylbenzene-1,3-diol] | – | – | – | notable anti-inflammatory activity |
| CCCCCCC(C)(C)c1cc(O)c(C/C=C(\C)CCC=C(C)C)c(OC)c1 [HUM-223, (E)-2-(3,7-dimethylocta-2,6-dien-1-yl)-3-methoxy-5-(2-methyloctan-2-yl)phenol] | – | – | – | notable anti-inflammatory activity |
| C=C(C)[C@@H]1CCC(C)=C[C@H]1c1c(O)cc(CCCCC)c(C)c1O [HUM-216, (1′R,2′R)-3,5′-dimethyl-4-pentyl-2′-(prop-1-en-2-yl)-1′,2′,3′,4′-tetrahydro-[1,1′-biphenyl]-2,6-diol] | – | – | – | notable anti-inflammatory activity |
| CCCCCc1cc(O)c([C@@H]2C=C(C)CC[C@H]2C(C)C)c(O)c1C [HUM-217, (1′S,2′S)-2′-isopropyl-3,5′-dimethyl-4-pentyl-1′,2′,3′,4′-tetrahydro-[1,1′-biphenyl]-2,6-diol] | – | – | – | notable anti-inflammatory activity |
